The assay concerns P388 leukemia ip, CD2F1 mice, survival T/C. In words: NCI In Vivo Anticancer Drug Screen. Data for tumor model P388 Leukemia (intraperitoneal) in CD2F1 (CDF1) mice. Particulars: endpoint: median survival time, higher = longer survival. Summed up: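 Mice carrying the transplanted tumor received test compound or vehicle. Survival was recorded in each group, and the value is the treated-group measurement divided by that of the vehicle-treated control group.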

The mark [1] stands for this setting: dose: 12.5 mg/kg/injection, schedule: Q01DX009 (ip), vehicle: saline with Tween-80.
The mark [2] stands for this setting: dose: 25.0 mg/kg/injection, schedule: Q01DX009 (ip), vehicle: saline with Tween-80.
Setting [3] is: dose: 25.0 mg/kg/injection, schedule: Q04DX003 (ip), vehicle: saline with Tween-80.
Where [4] appears, read: dose: 50.0 mg/kg/injection, schedule: Q04DX003 (ip), vehicle: saline with Tween-80.
Where [5] appears, read: dose: 50.0 mg/kg/injection, schedule: Q01DX009 (ip), vehicle: saline with Tween-80.
The mark [6] stands for this setting: dose: 100.0 mg/kg/injection, schedule: Q01DX009 (ip), vehicle: saline with Tween-80.
The mark [7] stands for this setting: dose: 200.0 mg/kg/injection, schedule: Q01DX009 (ip), vehicle: saline with Tween-80.
Setting [8] is: dose: 100.0 mg/kg/injection, schedule: Q04DX003 (ip), vehicle: Klucel (hydroxypropylcellulose) (HPC).
[9] abbreviates: dose: 200.0 mg/kg/injection, schedule: Q04DX003 (ip), vehicle: Klucel (hydroxypropylcellulose) (HPC).
[10] abbreviates: dose: 400.0 mg/kg/injection, schedule: Q04DX003 (ip), vehicle: Klucel (hydroxypropylcellulose) (HPC).
Setting [11] is: dose: 50.0 mg/kg/injection, schedule: Q01DX005 (ip), vehicle: Klucel + Tween-80.
Setting [12] is: dose: 100.0 mg/kg/injection, schedule: Q01DX001 (ip), vehicle: saline with Tween-80.
Where [13] appears, read: dose: 200.0 mg/kg/injection, schedule: Q01DX001 (ip), vehicle: saline with Tween-80.
Setting [14] is: dose: 400.0 mg/kg/injection, schedule: Q01DX001 (ip), vehicle: saline with Tween-80.
[15] abbreviates: dose: 50.0 mg/kg/injection, schedule: Q01DX009 (ip), vehicle: Klucel (hydroxypropylcellulose) (HPC).
The mark [16] stands for this setting: dose: 100.0 mg/kg/injection, schedule: Q01DX009 (ip), vehicle: Klucel (hydroxypropylcellulose) (HPC).
Setting [17] is: dose: 200.0 mg/kg/injection, schedule: Q01DX009 (ip), vehicle: Klucel (hydroxypropylcellulose) (HPC).
The mark [18] stands for this setting: dose: 50.0 mg/kg/injection, schedule: Q01DX009 (ip), vehicle: saline.
The mark [19] stands for this setting: dose: 100.0 mg/kg/injection, schedule: Q01DX009 (ip), vehicle: saline.
The mark [20] stands for this setting: dose: 200.0 mg/kg/injection, schedule: Q01DX009 (ip), vehicle: saline.
The mark [21] stands for this setting: dose: 12.5 mg/kg/injection, schedule: Q01DX009 (ip), vehicle: saline.
The mark [22] stands for this setting: dose: 25.0 mg/kg/injection, schedule: Q01DX009 (ip), vehicle: saline.
Where [23] appears, read: dose: 50.0 mg/kg/injection, schedule: Q01DX005 (ip), vehicle: Klucel (hydroxypropylcellulose) (HPC).
[24] abbreviates: dose: 100.0 mg/kg/injection, schedule: Q01DX005 (ip), vehicle: Klucel (hydroxypropylcellulose) (HPC).
Setting [25] is: dose: 200.0 mg/kg/injection, schedule: Q01DX005 (ip), vehicle: Klucel (hydroxypropylcellulose) (HPC).

Each structure is given as a SMILES string. Several values for one entry are separate records, joined by “and”; a condition that tells them apart may be missing. Identical values can stand only once. Toxic doses and inconclusive results are not listed.

We go through 25 compounds from PubChem BioAssay AID330 (DTP/NCI, 2004).

With `Cc1cc(N(CCCl)CCCl)ccc1N=Nc1ccccc1C(=O)[O-].Cc1cc(N(CCCl)CCCl)ccc1N=Nc1ccccc1C(=O)[O-].[Cu+2]`, the T/C (dose: 12.0 mg/kg/injection, schedule: Q04DX003 (ip), vehicle: saline with Tween-80) was 150 % of control; the T/C under setting [1] was 209 % of control; the T/C (dose: 12.5 mg/kg/injection, schedule: Q04DX003 (ip), vehicle: saline with Tween-80) is 154 % of control; the T/C under setting [2] was 95 % of control; the T/C under setting [3] was 195 % of control; the T/C under setting [4] was 95 % of control. In addition, the T/C is 109 % of control (dose: 375.0 micrograms/kg/injection, schedule: Q04DX003 (ip), vehicle: saline); 109 % of control (dose: 750.0 micrograms/kg/injection, schedule: Q04DX003 (ip), vehicle: saline); 104 % of control (dose: 1500.0 micrograms/kg/injection, schedule: Q04DX003 (ip), vehicle: saline).
`CC(C)(C#N)C#N`: the T/C is 100 % of control under setting [3] and 100 % of control under setting [4].
On to `CN1CCC(c2ccccc2)(c2ccccc2)C(=O)C1`, for which the T/C by setting is: under setting [5], 100 % of control and 104 % of control; under setting [6], 109 % of control and 111 % of control and 114 % of control; under setting [7], 118 % of control and 123 % of control.
For `CN1CCOP(=O)(Oc2ccccc2)N1` (stereo not given), the T/C was 103 % of control (dose: 60.0 mg/kg/injection, schedule: Q01DX005 (ip), vehicle: saline with Tween-80); 99 % of control (dose: 120.0 mg/kg/injection, schedule: Q01DX005 (ip), vehicle: saline with Tween-80); 100 % of control (dose: 240.0 mg/kg/injection, schedule: Q01DX005 (ip), vehicle: saline with Tween-80).
As to `COC(=O)c1ccc(SCC2(CCN3C(=O)c4ccccc4C3=O)OCCO2)cc1`, the T/C by setting is: under setting [8], 97 % of control; under setting [9], 96 % of control; under setting [10], 88 % of control.
As to `Nc1ccc2nc3cc4c5ccccc5c(=O)c5cccc(c54)n3c(=O)c2c1`, the T/C under setting [11] was 104 % of control.
For the compound `NNC1=Nc2cc3c(cc2C(=O)N2C[C@H](O)CC12)OCO3` (stereo not given in full), the T/C runs as follows: under setting [12], 100 % of control; under setting [13], 100 % of control; under setting [14], 99 % of control.
Take `COc1cc2c(c(OC)c1OC)C1=NNC(=O)C1(C)CC2` (stereo not given): the T/C under setting [8] is 91 % of control, the T/C under setting [9] is 88 % of control and the T/C under setting [10] is 92 % of control.
As for `COc1cc(OC)c(NC(=S)NC(C)C)cc1Cl`, the T/C was 91 % of control under setting [15], 96 % of control under setting [16] and 99 % of control under setting [17].
Consider `Oc1c(-c2ccccc2)cc(-c2ccc(Br)cc2)c(-c2ccc(Br)cc2)c1-c1ccccc1`, for which the T/C reads like this: under setting [1], 107 % of control; under setting [2], 95 % of control; under setting [5], 98 % of control; under setting [6], 105 % of control; under setting [7], 96 % of control.
For the compound `CN(C)c1ccc(C=NCCCN2CCN(CCCN=Cc3ccc(N(C)C)cc3)CC2)cc1`, the T/C by setting is: (dose: 12.5 mg/kg/injection, schedule: Q01DX009 (ip), vehicle: Klucel (hydroxypropylcellulose) (HPC)) 93 % of control; (dose: 25.0 mg/kg/injection, schedule: Q01DX009 (ip), vehicle: Klucel (hydroxypropylcellulose) (HPC)) 99 % of control; under setting [15], 104 % of control; under setting [16], 112 % of control; under setting [17], 105 % of control.
`CCC(=O)n1c(Cl)c(C=O)c2ccccc21`: the T/C reads like this: (dose: 100.0 mg/kg/injection, schedule: Q01DX001 (ip), vehicle: Klucel (hydroxypropylcellulose) (HPC)) 99 % of control; (dose: 200.0 mg/kg/injection, schedule: Q01DX001 (ip), vehicle: Klucel (hydroxypropylcellulose) (HPC)) 102 % of control; (dose: 400.0 mg/kg/injection, schedule: Q01DX001 (ip), vehicle: Klucel (hydroxypropylcellulose) (HPC)) 94 % of control.
On to `O=C(O)CSCCCCCSCC(=O)O`, for which the T/C was 105 % of control under setting [18], 106 % of control under setting [19] and 106 % of control under setting [20].
Consider `COC(=O)C(Cc1cc(OC)c(OC)c(OC)c1I)C(=O)OC`, for which the T/C under setting [12] is 102 % of control, the T/C under setting [13] is 100 % of control and the T/C under setting [14] was 103 % of control.
With `Cc1c2cc[n+](C)cc2c(C)c2c1[nH]c1ccc(O)c(-[n+]3ccccc3)c12`, the T/C is 113 % of control (dose: 2.5 mg/kg/injection, schedule: Q04DX003 (ip), vehicle: saline) and 111 % of control (dose: 5.0 mg/kg/injection, schedule: Q04DX003 (ip), vehicle: saline).
As to `COC(=O)C(S)(NC(C)=O)C(C)C` (stereo not given), the T/C was 102 % of control under setting [18], 98 % of control under setting [19] and 104 % of control under setting [20].
For `CC(C)C(NC(=O)[C@H](C(C)C)N1C(=O)c2ccccc2C1=O)C(=O)O` (stereo not given in full), the T/C was 88 % of control (dose: 50.0 mg/kg/injection, schedule: Q01DX005 (ip), vehicle: saline with Tween-80) and 96 % of control (dose: 100.0 mg/kg/injection, schedule: Q01DX005 (ip), vehicle: saline with Tween-80).
With `CC1(C)N=C(N)N=C(N)N1c1ccc(OCCNS(=O)(=O)c2cccc(S(=O)(=O)F)c2)c(Cl)c1`, the T/C runs as follows: under setting [21], 152 % of control; under setting [22], 157 % of control; under setting [18], 168 % of control; under setting [6], 154 % of control.
As to `O=C1c2ccccc2C(=O)N1CCC(=O)n1ccnc1`, the T/C was 104 % of control (dose: 17.5 mg/kg/injection, schedule: Q01DX005 (ip), vehicle: Klucel (hydroxypropylcellulose) (HPC)); 97 % of control (dose: 35.0 mg/kg/injection, schedule: Q01DX005 (ip), vehicle: Klucel (hydroxypropylcellulose) (HPC)); 99 % of control (dose: 70.0 mg/kg/injection, schedule: Q01DX005 (ip), vehicle: Klucel (hydroxypropylcellulose) (HPC)).
As for `COc1ccccc1C1N(C)CCCN1C`, the T/C was 95 % of control (dose: 6.25 mg/kg/injection, schedule: Q01DX009 (ip), vehicle: saline); 95 % of control under setting [21]; 100 % of control under setting [22].
Regarding `CCCNC(=O)OCc1cnc2ccc(OC)cc2c1COC(=O)NCCC`, the T/C reads like this: under setting [23], 96 % of control; under setting [24], 96 % of control; under setting [25], 93 % of control.
On to `BrCCc1cc(Br)c(CCBr)cc1Br`, for which the T/C reads like this: under setting [23], 97 % of control; under setting [24], 97 % of control; under setting [25], 107 % of control.
As to `CCOC(=O)CN1C(=S)N(c2ccc(C)cc2)C(=Nc2ccc(C)cc2)C1=Nc1ccc(C)cc1`, the T/C is 96 % of control under setting [11]; 91 % of control (dose: 100.0 mg/kg/injection, schedule: Q01DX005 (ip), vehicle: Klucel + Tween-80); 90 % of control (dose: 200.0 mg/kg/injection, schedule: Q01DX005 (ip), vehicle: Klucel + Tween-80).
On to `CNNS(=O)(=O)CC(O)C(Cl)(Cl)Cl` (stereo not given), for which the T/C is, setting by setting: under setting [18], 106 % of control; under setting [19], 101 % of control.
Take `O=C1SC(Nc2ccc([N+](=O)[O-])cc2)/C(=N\N=C2/C(Nc3ccc([N+](=O)[O-])cc3)SC(=O)N2Cc2ccccc2)N1Cc1ccccc1` (stereo not given): the T/C was 95 % of control (dose: 100.0 mg/kg/injection, schedule: Q04DX002 (ip), vehicle: Klucel (hydroxypropylcellulose) (HPC)); 95 % of control (dose: 200.0 mg/kg/injection, schedule: Q04DX002 (ip), vehicle: Klucel (hydroxypropylcellulose) (HPC)); 97 % of control (dose: 400.0 mg/kg/injection, schedule: Q04DX002 (ip), vehicle: Klucel (hydroxypropylcellulose) (HPC)).
